We go through 30 molecules from ChEMBL document CHEMBL4414638, “Structure-Activity Relationship of Peptide-Conjugated Chloramphenicol for Inhibiting Escherichia coli” (J Med Chem, 2019).

The test system of one data set is Escherichia coli. In words: Antibacterial activity against Escherichia coli K-12 assessed as reduction in bacterial growth incubated for 16 hrs. Type of data set: functional. To be noted: K-12, 16 h.
A further data set relates to HEK293. In words: Cytotoxicity in human HEK293 cells assessed as reduction in cell viability at 20 uM […] relative to chloramphenicol. It counts as cell-based. To be noted: hek293, 20 µM.
A short description of data set [1]: Cytotoxicity in human HS5 cells assessed as reduction in cell viability at 20 uM to 2 mM incubated up to […]rs relative to chloramphenicol. It counts as cell-based.
Data set [2] is described as follows: Drug metabolism in human serum assessed as formation of chloramphenicol at 200 uM at 37 degC after 24 hrs by LC-MS analysis relative to control.

SMILES strings stand for the structures. Values after ≈ are worked out from the molar mass of the structure shown. *1 amine or outer side, *2 acyl side, *3 side chain or, on linkers, in order; H or OH if unused. Where a SMILES comes first, the peptide text is derived from it. [ ]: non-standard residue; d: D form. The star is where a group is joined. X1 = O=C(CCC(=O)[*:2])OC[C@@H](N[*:1])[C@H](O)c1ccc([N+](=O)[O-])cc1; Dichloroacetyl = O=C(C(Cl)Cl)* Some results are limits rather than exact numbers.

In general, MIC refers to the lowest concentration found to suppress growth. With `O=C(CCC(=O)OC[C@@H](NC(=O)C(Cl)Cl)[C@H](O)c1ccc([N+](=O)[O-])cc1)N[C@H](Cc1ccccc1)C(=O)N[C@H](Cc1ccccc1)C(=O)N[C@H](Cc1ccc2ccccc2c1)C(=O)O`, in the data set with Escherichia coli, the MIC was above 200 µM.
Still for that read-out and setting: in the case of `O=C(CCC(=O)OC[C@@H](NC(=O)C(Cl)Cl)[C@H](O)c1ccc([N+](=O)[O-])cc1)NCCOP(=O)(O)O` it was 100 µM (≈ 54.6 µg/mL); in that of `O=C(CCC(=O)OC[C@@H](NC(=O)C(Cl)Cl)[C@H](O)c1ccc([N+](=O)[O-])cc1)N[C@H](Cc1ccccc1)C(=O)N[C@H](Cc1ccccc1)C(=O)O`, 100 µM (≈ 71.8 µg/mL).
On the same count and under the same terms, next, `C[C@@H](NC(=O)[C@@H](C)NC(=O)CCC(=O)OC[C@@H](NC(=O)C(Cl)Cl)[C@H](O)c1ccc([N+](=O)[O-])cc1)C(=O)O`: 80 µM (≈ 45.2 µg/mL).
As to `O=C(CCC(=O)OC[C@@H](NC(=O)C(Cl)Cl)[C@H](O)c1ccc([N+](=O)[O-])cc1)NCC(=O)NCC(=O)N[C@@H](Cc1ccccc1)C(=O)N[C@@H](Cc1ccccc1)C(=O)O`, the Activity entry in the data set with HEK293 is recorded as “Toxic”; in data set [1], “Non-Toxic”. Also, the MIC with Escherichia coli amounted to 20 µM (≈ 16.6 µg/mL).
Turning to `O=C(O)C[C@@H](NC(=O)[C@@H](CC(=O)O)NC(=O)CCC(=O)OC[C@@H](NC(=O)C(Cl)Cl)[C@H](O)c1ccc([N+](=O)[O-])cc1)C(=O)O`, in the data set with Escherichia coli, the MIC is above 200 µM.
The same measure, in the same setting: next, `C[C@@H](NC(=O)[C@@H](C)NC(=O)[C@@H](C)NC(=O)CCC(=O)OC[C@@H](NC(=O)C(Cl)Cl)[C@H](O)c1ccc([N+](=O)[O-])cc1)C(=O)O`: 80 µM (≈ 50.9 µg/mL); `O=C(O)C[C@H](NC(=O)[C@H](CC(=O)O)NC(=O)CCC(=O)OC[C@@H](NC(=O)C(Cl)Cl)[C@H](O)c1ccc([N+](=O)[O-])cc1)C(=O)O`: 200 µM (≈ 131 µg/mL).
For `O=C(CCC(=O)OC[C@@H](NC(=O)C(Cl)Cl)[C@H](O)c1ccc([N+](=O)[O-])cc1)NCC(=O)NCC(=O)N[C@@H](Cc1ccccc1)C(=O)O`, the results for the Activity entry (in the data set on HEK293; in data set [1]) were “Toxic” and “Non-Toxic”, respectively. In addition, the MIC with Escherichia coli came out at 20 µM (≈ 13.7 µg/mL).
As to `O=C(O)CC[C@@H](NC(=O)[C@@H](CCC(=O)O)NC(=O)CCC(=O)OC[C@@H](NC(=O)C(Cl)Cl)[C@H](O)c1ccc([N+](=O)[O-])cc1)C(=O)O`, the MIC in the data set with Escherichia coli was above 200 µM.
Same read-out and setting: next, `N=C(N)NCCC[C@@H](NC(=O)[C@@H](CCCNC(=N)N)NC(=O)CCC(=O)OC[C@@H](NC(=O)C(Cl)Cl)[C@H](O)c1ccc([N+](=O)[O-])cc1)C(=O)O`: 200 µM (≈ 147 µg/mL).
The same measure, in the same setting: next, `O=C(O)CNC(=O)CNC(=O)[C@H](Cc1ccccc1)NC(=O)CCC(=O)OC[C@@H](NC(=O)C(Cl)Cl)[C@H](O)c1ccc([N+](=O)[O-])cc1`: 80 µM (≈ 54.8 µg/mL).
The same measure, in the same setting: in the case of `O=C(O)CNC(=O)CNC(=O)[C@@H](Cc1ccc2ccccc2c1)NC(=O)[C@@H](Cc1ccccc1)NC(=O)[C@@H](Cc1ccccc1)NC(=O)CCC(=O)OC[C@@H](NC(=O)C(Cl)Cl)[C@H](O)c1ccc([N+](=O)[O-])cc1` it was above 200 µM.
For `CNC(=O)CNC(=O)CNC(=O)CCC(=O)OC[C@@H](NC(=O)C(Cl)Cl)[C@H](O)c1ccc([N+](=O)[O-])cc1`, the Activity result was “Toxic” with HEK293 and “Non-Toxic” in data set [1]. Further, the MIC in the data set on Escherichia coli worked out at 20 µM (≈ 11 µg/mL).
The like results for `CC(C)C[C@@H](NC(=O)CNC(=O)CCC(=O)OC[C@@H](NC(=O)C(Cl)Cl)[C@H](O)c1ccc([N+](=O)[O-])cc1)C(=O)O` were, in that order, “Toxic”, “Non-Toxic” and 20 µM (≈ 11.9 µg/mL).
As to `C[C@@H](NC(=O)CCC(=O)OC[C@@H](NC(=O)C(Cl)Cl)[C@H](O)c1ccc([N+](=O)[O-])cc1)C(=O)O`, in the data set on Escherichia coli, the MIC is above 200 µM.
Take `O=C(O)C[C@H](NC(=O)CNC(=O)CCC(=O)OC[C@@H](NC(=O)C(Cl)Cl)[C@H](O)c1ccc([N+](=O)[O-])cc1)C(=O)O`: the Activity result in the data set on HEK293 is recorded as “Toxic”; in data set [1], “Non-Toxic”. In addition, the MIC with Escherichia coli was 20 µM (≈ 11.9 µg/mL).
The like results for `C[C@@H](NC(=O)CNC(=O)CCC(=O)OC[C@@H](NC(=O)C(Cl)Cl)[C@H](O)c1ccc([N+](=O)[O-])cc1)C(=O)O` were, in that order, “Toxic”, “Non-Toxic” and 20 µM (≈ 11 µg/mL).
On to `O=C(CCC(=O)OC[C@@H](NC(=O)C(Cl)Cl)[C@H](O)c1ccc([N+](=O)[O-])cc1)NCC(=O)NCC(=O)N[C@H](Cc1ccccc1)C(=O)N[C@H](Cc1ccccc1)C(=O)O`, for which the figures for the Activity entry (in the data set on HEK293; in data set [1]) were “Toxic” and “Non-Toxic”, respectively. Besides, the MIC with Escherichia coli was determined as 20 µM (≈ 16.6 µg/mL). Besides, the Drug metabolism result in data set [2] is recorded as “Metabolite_Detected”.
For `O=C(O)CCC(=O)OC[C@@H](NC(=O)C(Cl)Cl)[C@H](O)c1ccc([N+](=O)[O-])cc1` [CHLORAMPHENICOL SUCCINIC ACID], the Activity result in the data set with HEK293 is “Toxic”; in data set [1] it was “Non-Toxic”. Moreover, the MIC in the data set on Escherichia coli was above 200 µM.
`NCCCC[C@@H](NC(=O)[C@@H](CCCCN)NC(=O)[C@@H](Cc1ccccc1)NC(=O)[C@@H](Cc1ccccc1)NC(=O)CCC(=O)OC[C@@H](NC(=O)C(Cl)Cl)[C@H](O)c1ccc([N+](=O)[O-])cc1)C(=O)O`: in the data set with Escherichia coli, the MIC was 200 µM (≈ 195 µg/mL).
On the same count and under the same terms, next, `O=C(O)CNC(=O)CNC(=O)CNC(=O)CNC(=O)CNC(=O)CCC(=O)OC[C@@H](NC(=O)C(Cl)Cl)[C@H](O)c1ccc([N+](=O)[O-])cc1` (Dichloroacetyl-[X1]GGGGG-OH): 40 µM (≈ 28.3 µg/mL).
Turning to `O=C(O)CNC(=O)CNC(=O)CNC(=O)CNC(=O)CCC(=O)OC[C@@H](NC(=O)C(Cl)Cl)[C@H](O)c1ccc([N+](=O)[O-])cc1` (Dichloroacetyl-[X1]GGGG-OH), the results for the Activity entry (in the data set with HEK293; in data set [1]) were “Toxic” and “Non-Toxic”, respectively. For the same molecule, the MIC in the data set on Escherichia coli is 20 µM (≈ 13 µg/mL).
With `O=C(N[C@H](CO)[C@H](O)c1ccc([N+](=O)[O-])cc1)C(Cl)Cl` [CHLORAMPHENICOL], in the data set on HEK293, the Activity entry is “Toxic”. Moreover, the MIC in the data set on Escherichia coli was found to be 20 µM (≈ 6.46 µg/mL).
`COC(=O)CCC(=O)OC[C@@H](NC(=O)C(Cl)Cl)[C@H](O)c1ccc([N+](=O)[O-])cc1`: in the data set with Escherichia coli, the MIC was above 200 µM.
On to `N=C(N)NCCC[C@@H](NC(=O)[C@@H](CCCNC(=N)N)NC(=O)[C@@H](Cc1ccccc1)NC(=O)[C@@H](Cc1ccccc1)NC(=O)CCC(=O)OC[C@@H](NC(=O)C(Cl)Cl)[C@H](O)c1ccc([N+](=O)[O-])cc1)C(=O)O`, for which the MIC in the data set with Escherichia coli was 200 µM (≈ 206 µg/mL).
The same measure, in the same setting: next, `C[C@H](NC(=O)[C@H](C)NC(=O)CCC(=O)OC[C@@H](NC(=O)C(Cl)Cl)[C@H](O)c1ccc([N+](=O)[O-])cc1)C(=O)O`: 100 µM (≈ 56.5 µg/mL); `O=C(CCC(=O)OC[C@@H](NC(=O)C(Cl)Cl)[C@H](O)c1ccc([N+](=O)[O-])cc1)NCCS(=O)(=O)O`: 40 µM (≈ 21.2 µg/mL).
On the same count and under the same terms, next, `C[C@H](NC(=O)[C@H](C)NC(=O)[C@H](C)NC(=O)CCC(=O)OC[C@@H](NC(=O)C(Cl)Cl)[C@H](O)c1ccc([N+](=O)[O-])cc1)C(=O)O`: 100 µM (≈ 63.6 µg/mL).
For the molecule `O=C(O)CNC(=O)[C@H](Cc1ccccc1)NC(=O)CNC(=O)CCC(=O)OC[C@@H](NC(=O)C(Cl)Cl)[C@H](O)c1ccc([N+](=O)[O-])cc1`, the Activity entry in the data set on HEK293 was “Toxic”; in data set [1] it was “Non-Toxic”. Moreover, the MIC with Escherichia coli turned out to be 20 µM (≈ 13.7 µg/mL).
